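Dose response: 5 concentrations. Exposure: 48 h. Format: 96-well plates. Endpoint: linear interpolation; highest concentration if not reached. The concentration for 50% growth inhibition is given as GI50. The concentration for full growth arrest is given as TGI.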
Columns and labels:
Assay in all cases: NCI anticancer screen, dose series, 48 h
[1] = system: K-562 leukemia
[2] = system: NCI-H226 lung
[3] = system: SF-539 CNS
[4] = system: UACC-62 melanoma
[5] = system: SR leukemia
[6] = system: A498 renal
[7] = system: SN12C renal
[8] = system: SNB-75 CNS
[9] = system: DU-145 prostate
[10] = system: NCI-H522 lung
[11] = system: MDA-MB-435
[12] = system: CAKI-1 renal
[13] = system: HCT-15 colon
[14] = system: EKVX NSCLC
[15] = system: UACC-257 melanoma
[16] = system: SK-OV-3 ovarian
[17] = system: HCT-116 colon
[18] = system: CCRF-CEM leukemia
[19] = system: RPMI-8226 leukemia
[20] = system: HL-60(TB) leukemia
[21] = system: PC-3 prostate
[22] = system: UO-31 renal
[23] = system: IGROV1 ovarian
[24] = system: BT-549 breast
[25] = system: SK-MEL-5 melanoma
[26] = system: MDA-MB-231 breast
[27] = system: 786-0 renal
[28] = system: HCC-2998 colon
[29] = system: OVCAR-3 ovarian
[30] = system: RXF 393 renal
[31] = system: MALME-3M melanoma
[32] = system: SK-MEL-28 melanoma
[33] = system: T-47D breast
[34] = system: NCI-H460 lung
[35] = system: NCI/ADR-RES ovarian
[36] = system: HOP-62 NSCLC
[37] = system: U251 CNS
[38] = system: MCF7 breast
[39] = system: SF-268 CNS
[40] = system: M14 melanoma
[41] = system: HOP-92 NSCLC
[42] = system: COLO 205 colon
[43] = system: TK-10 renal
[44] = system: ACHN renal
[45] = system: SF-295 CNS
[46] = system: SW-620 colon
[47] = system: LOX IMVI melanoma
[48] = system: OVCAR-8 ovarian
[49] = system: NCI-H23 lung
[50] = system: KM12 colon
[51] = system: OVCAR-5 ovarian
[52] = system: SK-MEL-2 melanoma
[53] = system: HT29 colon
[54] = system: HS 578T breast
[55] = system: SNB-19 CNS
[56] = system: A549 NSCLC
[57] = system: OVCAR-4 ovarian

O=[N+]([O-])c1cccc(-c2nc3sccn3c2-c2ccnc(NCCCNS(=O)(=O)c3cccc(F)c3)n2)c1
GI50 [1]: 1.73 µM
TGI [1]: > 100 µM
GI50 [2]: 1.66 µM
TGI [2]: 8.22 µM
GI50 [3]: 4.04 µM
TGI [3]: 20.8 µM
GI50 [4]: 1.16 µM
TGI [4]: 4.26 µM
GI50 [5]: 3.1 µM
TGI [5]: > 100 µM
GI50 [6]: 1.56 µM
TGI [6]: 30.5 µM
GI50 [7]: 2.71 µM
TGI [7]: 44.8 µM
GI50 [8]: 1.52 µM
TGI [8]: 4.24 µM
GI50 [9]: 2.6 µM
TGI [9]: 12.9 µM
GI50 [10]: 2.02 µM
TGI [10]: 7.97 µM
GI50 [11]: 2.98 µM
TGI [11]: 11.6 µM
GI50 [12]: 2.33 µM
TGI [12]: 14.1 µM
GI50 [13]: 2.3 µM
TGI [13]: 12.3 µM
GI50 [14]: 2.77 µM
TGI [14]: 52.7 µM
GI50 [15]: 2.71 µM
TGI [15]: 8.27 µM
GI50 [16]: 5.82 µM
TGI [16]: 30.5 µM
GI50 [17]: 2.74 µM
TGI [17]: > 100 µM
GI50 [18]: 1.3 µM
TGI [18]: > 100 µM
GI50 [19]: 0.984 µM
TGI [19]: 4.18 µM
GI50 [20]: 2.97 µM
TGI [20]: 8.57 µM
GI50 [21]: 1.37 µM
TGI [21]: 6.62 µM
GI50 [22]: 1.25 µM
TGI [22]: 9.04 µM
GI50 [23]: 2.71 µM
TGI [23]: 11.6 µM
GI50 [24]: 2.18 µM
TGI [24]: 11.9 µM
GI50 [25]: 0.824 µM
TGI [25]: 2.1 µM
GI50 [26]: 6.41 µM
TGI [26]: 27.2 µM
GI50 [27]: 7.97 µM
TGI [27]: 45.6 µM
GI50 [28]: 6.79 µM
TGI [28]: > 100 µM
GI50 [29]: 2.53 µM
TGI [29]: 11.9 µM
GI50 [30]: 8.13 µM
TGI [30]: 41.6 µM
GI50 [31]: 2.14 µM
TGI [31]: 7.06 µM
GI50 [32]: 2.63 µM
TGI [32]: 7.76 µM
GI50 [33]: 0.391 µM
TGI [33]: 4.64 µM
GI50 [34]: 3.34 µM
TGI [34]: > 100 µM
GI50 [35]: 1.72 µM
TGI [35]: 6.49 µM
GI50 [36]: 3.5 µM
TGI [36]: 14.1 µM
GI50 [37]: 4.56 µM
TGI [37]: 39.4 µM
GI50 [38]: 2.16 µM
TGI [38]: 8.48 µM
GI50 [39]: 3.21 µM
TGI [39]: 21.9 µM
GI50 [40]: 2.82 µM
TGI [40]: 12 µM
GI50 [41]: 2.8 µM
TGI [41]: 30.3 µM
GI50 [42]: 2.46 µM
TGI [42]: 8.11 µM
GI50 [43]: 5.38 µM
TGI [43]: 52 µM
GI50 [44]: 2.19 µM
TGI [44]: 11.2 µM
GI50 [45]: 2.52 µM
TGI [45]: 7.79 µM
GI50 [46]: 4.12 µM
TGI [46]: > 100 µM
GI50 [47]: 2.58 µM
TGI [47]: 11 µM
GI50 [48]: 1.89 µM
TGI [48]: 17.7 µM
GI50 [49]: 1.98 µM
TGI [49]: 7.34 µM
GI50 [50]: 2.39 µM
TGI [50]: 8.14 µM
GI50 [51]: 7.83 µM
TGI [51]: > 100 µM
GI50 [52]: 2.04 µM
TGI [52]: 5.98 µM
GI50 [53]: 3.12 µM
TGI [53]: > 100 µM
GI50 [54]: 4.73 µM
TGI [54]: 47.3 µM
GI50 [55]: 4.34 µM
TGI [55]: 61.8 µM
GI50 [56]: 2.68 µM
TGI [56]: 24.3 µM
GI50 [57]: 1.64 µM
TGI [57]: 7.64 µM

From PubChem BioAssay (NCI)
